Experimental data published in the NIST ThermoML archive (doi:10.1021/je700152c).
± gives the expanded uncertainty stated by the source.

Key:
[1] = molar heat capacity at constant pressure; xn = mol fraction of the nth substance listed; conditions: 101 kPa, Liquid, x1 = 0.37
[2] = Molar enthalpy of transition or fusion; conditions: Adiabatic calorimetry
[3] = molar heat capacity at constant pressure; conditions: 101.33 kPa

CCCCn1cc[n+](C)c1.Cc1ccc(S(=O)(=O)[O-])cc1 [1-butyl-3-methylimidazolium tosylate] + O
[1]
Conditions | molar heat capacity at constant pressure [J/K/mol]
78.74 K | 66.26 ± 0.88
81.34 K | 67.77 ± 0.88
83.37 K | 68.91 ± 0.88
85.4 K | 70.17 ± 0.88
87.43 K | 71.43 ± 0.88
89.46 K | 72.69 ± 1
91.5 K | 73.83 ± 1
93.53 K | 75.09 ± 1
95.58 K | 76.35 ± 1
97.63 K | 77.49 ± 1
99.68 K | 78.62 ± 1.1
101.73 K | 79.76 ± 1.1
103.78 K | 81.02 ± 1.1
105.84 K | 82.16 ± 1.1
107.9 K | 83.29 ± 1.1
109.96 K | 84.43 ± 1.1
112.02 K | 85.57 ± 1.1
114.09 K | 86.7 ± 1.1
116.17 K | 87.84 ± 1.1
118.24 K | 88.97 ± 1.1
120.32 K | 90.23 ± 1.1
122.39 K | 91.37 ± 1.1
124.47 K | 92.51 ± 1.1
126.55 K | 93.64 ± 1.3
128.64 K | 94.78 ± 1.3
130.73 K | 96.04 ± 1.3
132.81 K | 97.3 ± 1.3
134.9 K | 98.31 ± 1.3
136.98 K | 99.57 ± 1.3
139.08 K | 100.71 ± 1.3
141.17 K | 101.85 ± 1.3
143.27 K | 103.11 ± 1.3
145.36 K | 104.24 ± 1.3
147.46 K | 105.38 ± 1.3
149.56 K | 106.64 ± 1.3
151.66 K | 107.78 ± 1.3
153.77 K | 108.91 ± 1.3
155.87 K | 110.17 ± 1.4
157.98 K | 111.44 ± 1.4
160.09 K | 112.57 ± 1.4
162.2 K | 113.71 ± 1.4
164.31 K | 114.97 ± 1.4
166.42 K | 116.23 ± 1.4
168.54 K | 117.37 ± 1.4
170.66 K | 118.63 ± 1.4
172.78 K | 119.89 ± 1.4
174.9 K | 121.03 ± 1.4
177.02 K | 122.29 ± 1.4
179.14 K | 123.55 ± 1.4
181.27 K | 124.94 ± 1.5
183.39 K | 126.58 ± 1.5
185.51 K | 128.6 ± 1.5
187.64 K | 131.63 ± 1.5
189.76 K | 138.07 ± 1.5
191.84 K | 148.79 ± 1.6
193.9 K | 159.02 ± 1.8
195.93 K | 176.18 ± 1.9
198 K | 179.59 ± 1.9
200.12 K | 180.34 ± 1.9
202.26 K | 181.1 ± 1.9
204.39 K | 181.73 ± 1.9
206.52 K | 182.24 ± 1.9
208.65 K | 182.87 ± 1.9
210.79 K | 183.5 ± 1.9
212.93 K | 184.13 ± 1.9
215.07 K | 184.63 ± 1.9
217.23 K | 185.39 ± 1.9
219.38 K | 185.9 ± 1.9
221.54 K | 186.65 ± 1.9
223.7 K | 187.28 ± 1.9
225.87 K | 188.04 ± 1.9

CCCCn1cc[n+](C)c1.Cc1ccc(S(=O)(=O)[O-])cc1 [1-butyl-3-methylimidazolium tosylate]
[2]
Conditions | Molar enthalpy of transition or fusion [kcal/mol]
Crystal 1 | 5.16 ± 0.0574
Crystal 2 | 0.0464 ± 0.0478
Metastable crystal | 4.76 ± 0.0621

[3]
Conditions | molar heat capacity at constant pressure [J/K/mol]
5 K, Crystal 2 | 2.54 ± 0.13
10 K, Crystal 2 | 11.91 ± 0.42
15 K, Crystal 2 | 24.31 ± 0.72
20 K, Crystal 2 | 37.67 ± 0.95
25 K, Crystal 2 | 51.27 ± 1.1
30 K, Crystal 2 | 64.46 ± 0.85
35 K, Crystal 2 | 76.73 ± 0.96
40 K, Crystal 2 | 87.97 ± 1.1
45 K, Crystal 2 | 98.44 ± 1.2
50 K, Crystal 2 | 108.3 ± 1.2
60 K, Crystal 2 | 125.9 ± 1.5
70 K, Crystal 2 | 141.6 ± 1.6
80 K, Crystal 2 | 156 ± 1.7
90 K, Crystal 2 | 169.3 ± 1.7
100 K, Crystal 2 | 181.9 ± 1.8
105 K, Crystal 2 | 188.1 ± 1.9
110 K, Crystal 2 | 194.1 ± 1.9
120 K, Crystal 2 | 206 ± 2.1
130 K, Crystal 2 | 218 ± 2.2
140 K, Crystal 2 | 230 ± 2.2
150 K, Crystal 2 | 241.9 ± 2.3
152.77 K, Crystal 1 | 238.4 ± 2.3
152.77 K, Crystal 2 | 245.2 ± 2.3
160 K, Crystal 1 | 246.2 ± 2.4
170 K, Crystal 1 | 257 ± 2.5
180 K, Crystal 1 | 267.8 ± 2.6
190 K, Crystal 1 | 278.8 ± 2.7
200 K, Crystal 1 | 289.9 ± 2.7
210 K, Crystal 1 | 301.5 ± 2.8
220 K, Crystal 1 | 313.3 ± 2.9
230 K, Crystal 1 | 335.4 ± 3.1
240 K, Crystal 1 | 348.3 ± 3.2
250 K, Crystal 1 | 359.9 ± 3.2
260 K, Crystal 1 | 371.2 ± 3.4
270 K, Crystal 1 | 382.3 ± 3.5
280 K, Crystal 1 | 393.3 ± 3.6
290 K, Crystal 1 | 404.1 ± 3.7
298.15 K, Crystal 1 | 412.7 ± 3.7
300 K, Crystal 1 | 414.6 ± 3.7
310 K, Crystal 1 | 425 ± 3.8
320 K, Crystal 1 | 435.3 ± 3.9
330 K, Crystal 1 | 445.3 ± 4
340 K, Crystal 1 | 455.1 ± 4.1
343.89 K, Crystal 1 | 458.7 ± 4.1
343.89 K, Liquid | 543.4 ± 4.7
350 K, Liquid | 548.4 ± 4.8
360 K, Liquid | 556 ± 4.8
370 K, Liquid | 563.1 ± 4.9
380 K, Liquid | 569.8 ± 5
